Here are results for 26 molecules from patent publication US10441588B2, “Methods and compositions for treating bacterial infection” (Curators of the University of Missouri, priority 2012, dated 2019).

Where a name gives a salt, the structure may show the parent alone. Read-outs that look alike come from different tables or passages of the source.

One test concerns E. coli flagellin (fliC). Nature of the test: microbe, parasite or virus in culture. The settings on record: Escherichia coli, 6 h; for activity at 5 µM: read-out: E. coli flagellin production, Relative Level vs. Control, 5 μM; for activity at 25 µM: read-out: E. coli flagellin production, Relative Level vs. Control, 25 μM. Format: cell-based.
A further test concerns S. epidermis biofilm. Nature of the test: S. epidermis biofilm inhibition, optical density, test/control. To be noted: for activity at 5 µM / activity at 100 µM / activity at 50 µM: Staphylococcus epidermidis; for activity at 5 µM: read-out: S. epidermis Biofilm inhibition 5 μM vs. (−) Control, 5 μM; for activity at 5 µM / activity at 100 µM / activity at 50 µM / S. epidermis Biofilm inhibition 10 μM vs. (−) Control: growth of biofilm test/control by optical density; for activity at 100 µM: read-out: S. epidermis Biofilm inhibition 100 μM vs. (−) Control, 100 μM; for activity at 50 µM: read-out: S. epidermis Biofilm inhibition 50 μM vs. (−) Control, 50 μM.

In another test the test system is S. aureus biofilm. Nature of the test: S. aureus biofilm inhibition, optical density, test/control. The settings on record: for activity at 5 µM / activity at 50 µM / activity at 10 µM / activity at 100 µM: Staphylococcus aureus. Format: cell-based, Staphylococcus aureus.
The next test relates to S. epidermis. Nature of the test: S. epidermis growth inhibition, optical density, test/control. Format: cell-based, Staphylococcus epidermidis. To be noted: Staphylococcus epidermidis, 100 μM; growth of bacteria test/control by optical density.
For the next test, the system named is S. aureus. Nature of the test: S. aureus growth inhibition, optical density, test/control. Format: cell-based, Staphylococcus aureus. To be noted: growth of bacteria test/control by optical density; for activity at 100 µM: Staphylococcus aureus.
The mark [1] stands for this setting: read-out: S. aureus Biofilm Inhibition 5 μM vs. (−) Control, 5 μM, growth of biofilm test/control by optical density.
[2] abbreviates: 100 μM, growth of biofilm test/control by optical density.
[3] abbreviates: 5 μM, growth of biofilm test/control by optical density, read-out: S. aureus Biofilm Inhibition 5 μM vs. (−) Control.
[4] abbreviates: 50 μM, growth of biofilm test/control by optical density, read-out: S. aureus Biofilm Inhibition 50 μM vs. (−) Control.
Setting [5] is: growth of biofilm test/control by optical density.

With `COc1ccc2c(c1)CC(C)(C)c1c(OC)nc(SCC(F)(F)F)nc1-2` [IVG-00607-00A01], in the test on E. coli flagellin (fliC), the activity at 5 µM amounted to 63.4% and the activity at 25 µM was found to be 27.5%.

Regarding `COc1ccc2c(c1)CC(C)(C)c1c-2nc(SCC(F)(F)F)n(C)c1=O` [IV501], in the test on E. coli flagellin (fliC), the activity at 5 µM is 36.2% and the activity at 25 µM amounted to 47.5%.

For the molecule `CCNc1nc2c(c(=O)n1C)C(C)(C)Cc1cc(OC)ccc1-2` [IVG-00613-00A01], in the test on E. coli flagellin (fliC), the activity at 5 µM is 34.2% and the activity at 25 µM stood at 13.9%.

Turning to `C=CCn1c(SCC)nc2c(c1=O)C1(CCNCC1)Cc1cc(OC)ccc1-2` [CCG-206664, 3-allyl-2-(ethylthio)-8-methoxy-3H-spiro[benzo[h]quinazoline-5,4′-piperidin]-4(6H)-one hydrochloride], the activity at 5 µM in the test on S. epidermis biofilm turned out to be 87.7%; in the test with S. aureus biofilm (setting [1]), 89%. The activity at 50 µM in the test with S. aureus biofilm (read-out: S. aureus Biofilm Inhibition 50 μM vs. (−) Control, 50 μM, growth of biofilm test/control by optical density) is 2.8%.

As for `COCCSc1nc(OCC2OCCO2)c2c(n1)-c1ccccc1CC2(C)C` [CCG-204030, 4-((1,3-dioxolan-2-yl)methoxy)-2-((2-methoxyethyl)thio)-5,5-dimethyl-5,6-dihydrobenzo[h]-quinazoline], the activity at 100 µM with S. epidermis was determined as 111%; with S. epidermis biofilm, 73.9%. Besides, the “S. aureus Biofilm Inhibition 100 μM vs. (−) Control” value with S. aureus biofilm (setting [2]) turned out to be 0.589. Besides, the “Growth Inhibition 100 μM vs. (−) Control” value in the test with S. aureus stood at 0.919.

`C=CCn1c(SCCOC)nc2c(c1=O)C1(CCN(Cc3ccccc3)CC1)Cc1cc(OC)ccc1-2` [CCG-208982, 3-allyl-1′-benzyl-8-methoxy-2-((2-methoxyethyl)thio)-3H-spiro[benzo[h]quinazoline-5,4′-piperidin]-4(6H)-one]: the activity at 5 µM in the test on S. epidermis biofilm worked out at 98.7%; with S. aureus biofilm (setting [3]), 76.5%. Besides, the activity at 50 µM was determined as 66% in the test on S. epidermis biofilm and 31.9% in the test with S. aureus biofilm (setting [4]).

Regarding `C=CCn1c(SCc2ccc(OC)cc2)nc2c(c1=O)C1(CCCCC1)Cc1ccccc1-2` [CCG-102483], the activity at 100 µM in the test on S. epidermis turned out to be 129%; in the test on S. epidermis biofilm it was 78.6%.

As to `COc1ccc2c(c1)CC(C)(C)c1c-2nc(OCC(F)(F)F)n(C)c1=O` [IVG-00614-00A01], in the test on E. coli flagellin (fliC), the activity at 5 µM was 24.4% and the activity at 25 µM came to 26.2%.

For `CCSc1nc2c(c(=O)n1C)C(C)(C)Cc1ccc(OC)cc1-2` [CCG-206353], in the test on S. epidermis biofilm, the “S. epidermis Biofilm inhibition 10 μM vs. (−) Control” value is 1.053. Also, the activity at 100 µM worked out at 34.7% in the test with S. epidermis biofilm, 32.3% in the test on S. aureus biofilm (setting [2]) and 92.1% in the test on S. aureus. Also, the activity at 10 µM with S. aureus biofilm (setting [5]) came out at 49.4%.

With `COc1ccc2c(c1)CC(C)(C)c1c-2nc(NCC(F)(F)F)n(C)c1=O` [IVG-00611-00A01], in the test with E. coli flagellin (fliC), the activity at 5 µM was 19.6% and the activity at 25 µM came out at 13.6%.

As to `C=CCn1c(SCCOC)nc2c(c1=O)C1(CCNCC1)Cc1cc(OC)ccc1-2` [CCG-206661, 3-allyl-8-methoxy-2-((2-methoxyethyl)thio)-3H-spiro[benzo[h]quinazoline-5,4′-piperidin]-4(6H)-one hydrochloride], the activity at 5 µM in the test with S. epidermis biofilm stood at 98.7%; in the test on S. aureus biofilm (setting [1]), 86.9%.

For `C=CCn1c(SCCOC)nc2c(c1=O)C1(CCN(C(=O)NC)CC1)Cc1cc(OC)ccc1-2` [CCG-211970, 3-allyl-8-methoxy-2-((2-methoxyethyl)thio)-N-methyl-4-oxo-4,6-dihydro-3H-spiro[benzo[h]quinazoline-5,4′-piperidine]-1′-carboxamide], the activity at 5 µM was determined as 79% in the test on S. epidermis biofilm and 69% in the test on S. aureus biofilm (setting [3]). Also, the results for the activity at 50 µM in the test on S. epidermis biofilm and in the test with S. aureus biofilm (setting [4]) were 67% and 58%, respectively.

Consider `COc1ccc2c(c1)CC(C)(C)c1c-2nc(N(C)CCO)n(C)c1=O` [IVG-00612-00A01], for which, in the test with E. coli flagellin (fliC), the activity at 5 µM amounted to 18.1% and the activity at 25 µM stood at 12.9%.

For the molecule `C=CCn1c(SCC)nc2c(c1=O)C(C)(C)Cc1cc(OCCN(CC)CC)ccc1-2` [CCG-205396, 3-Allyl-8-(2-(diethylamino)ethoxy)-2-(ethylthio)-5,5-dimethyl-5,6-dihydrobenzo[h]-quinazolin-4(3H)-one], the activity at 100 µM in the test with S. epidermis is 13%; in the test on S. epidermis biofilm, 3.7%; in the test on S. aureus biofilm (setting [2]) it was 6.2%. Further, the activity at 10 µM in the test on S. aureus biofilm (setting [5]) was determined as 68.4%.

With `COCCSc1nc(OCCCO)c2c(n1)-c1ccccc1CC2(C)C` [CCG-205384, 3-((2-((2-Methoxyethyl)thio)-5,5-dimethyl-5,6-dihydrobenzo[h]quinazolin-4-yl)oxy)propan-1-ol], the activity at 100 µM was found to be 100% with S. epidermis, 16% with S. aureus biofilm (setting [2]) and 93.5% in the test with S. aureus. In addition, the “S. epidermis Biofilm inhibition 10 μM vs. (−) Control” value in the test with S. epidermis biofilm is reported as 1.095.

In the case of `COc1ccc2c(c1)CC1(CCNCC1)c1c(OCC#N)nc(SCC#N)nc1-2` [CCG-212015, 2-((4-(cyanomethoxy)-8-methoxy-6H-spiro[benzo[h]quinazoline-5,4′-piperidin]-2-yl)thio)acetonitrile], the activity at 5 µM in the test with S. epidermis biofilm was determined as 93%; with S. aureus biofilm (setting [3]), 94%. Also, the activity at 50 µM in the test on S. epidermis biofilm came out at 48%; with S. aureus biofilm (setting [4]), 33%.

With `C=CCn1c(SCC)nc2c(c1=O)C1(CCN(C(=O)OC(C)(C)C)CC1)Cc1cc(OC)ccc1-2` [CCG-206663, tert-butyl 3-allyl-2-(ethylthio)-8-methoxy-4-oxo-4,6-dihydro-3H-spiro[benzo[h]quinazoline-5,4′-piperidine]-1′-carboxylate], the activity at 5 µM is 73.4% with S. epidermis biofilm and 49.9% in the test on S. aureus biofilm (setting [3]). Also, in the test with S. epidermis biofilm, the activity at 50 µM stood at 76.1%.

Regarding `COc1ccc2c(c1)CC(C)(C)c1c-2nc(NCCO)n(C)c1=O` [IVG-00610-00A01], in the test on E. coli flagellin (fliC), the activity at 5 µM amounted to 31.6% and the activity at 25 µM came to 8.83%.

Turning to `C=CCn1c(SCCOC)nc2c(c1=O)C(C)(C)Cc1cc(C(=O)NCCO)ccc1-2` [CCG-206239, 3-allyl-N-(2-hydroxyethyl)-2-((2-methoxyethyl)thio)-5,5-dimethyl-4-oxo-1,2,3,4,5,6-hexahydrobenzo[h]quinazoline-8-carboxamide], the activity at 100 µM in the test on S. epidermis was determined as 111%; in the test with S. aureus biofilm (setting [2]), 32.7%.

Take `COCCSc1nc2c(c(=O)n1CCCO)C(C)(C)Cc1ccccc1-2` [CCG-205390, 3-(3-Hydroxypropyl)-2-((2-methoxyethyl)thio)-5,5-dimethyl-5,6-dihydrobenzo[h]quinazolin-4(3H)-one]: the “S. epidermis Biofilm inhibition 10 μM vs. (−) Control” value in the test with S. epidermis biofilm is listed as 0.921. The activity at 100 µM with S. aureus biofilm (setting [2]) worked out at 52.5%; in the test with S. aureus, 89.1%.

As to `COc1ccc2c(c1)CC1(CCNCC1)c1c(OC)nc(SCC#N)nc1-2` [CCG-212014, 2((4,8-dimethoxy-6H-spiro[benzo[h]quinazoline-5,4′-piperidin]-2-yl)thio)acetonitrile], the activity at 5 µM in the test with S. epidermis biofilm stood at 105%; in the test on S. aureus biofilm (setting [3]) it was 77%. In addition, the results for the activity at 50 µM in the test with S. epidermis biofilm and with S. aureus biofilm (setting [4]) were 63% and 52%, respectively.

For the molecule `COc1ccc2c(c1)CC(C)(C)c1c-2nc(SCC(F)(F)F)[nH]c1=O` [IVG-00601-00A01], in the test with E. coli flagellin (fliC), the activity at 5 µM was 85.3% and the activity at 25 µM amounted to 3.96%.

Take `C=CCn1c(SCCOC)nc2c(c1=O)C1(CCN(C(=O)OC(C)(C)C)CC1)Cc1cc(OC)ccc1-2` [CCG-206660, tert-butyl 3-allyl-8-methoxy-2-((2-methoxyethyl)thio)-4-oxo-4,6-dihydro-3H-spiro[benzo[h]quinazoline-5,4′-piperidine]-1′-carboxylate]: the values for the activity at 5 µM in the test with S. epidermis biofilm and in the test with S. aureus biofilm (setting [3]) were 71.5% and 46%, respectively. Also, the figures for the activity at 50 µM with S. epidermis biofilm and in the test with S. aureus biofilm (setting [4]) were 64.3% and 60.1%, respectively.

As for `COc1ccc2c(c1)CC(C)(C)c1c-2nc(S)n(C)c1=O` [IVG-00608-00A01], in the test with E. coli flagellin (fliC), the activity at 5 µM came out at 82.8% and the activity at 25 µM was 48.9%.

For the molecule `C=CCn1c(SCCOC)nc2c(c1=O)C1(CCN(C(=O)CCCC)CC1)Cc1ccccc1-2` [CCG-206227, 3-Allyl-2-((2-methoxyethyl)thio)-1′-pentanoyl-3H-spiro[benzo[h]quinazoline-5,4′-piperidin]-4(6H)-one], in the test on S. epidermis, the activity at 100 µM stood at 141%. Also, in the test with S. epidermis biofilm, the “biofilm formation by S. epidermis” value is listed as “inhibit biofilm formation” and the “S. epidermis Biofilm inhibition 10 μM vs. (−) Control” value turned out to be 0.943. In addition, the “biofilm formation by S. aureus” value in the test on S. aureus biofilm is “inhibit biofilm formation”. Besides, the activity at 10 µM with S. aureus biofilm (setting [5]) stood at 52.8%. In addition, in the test on S. aureus biofilm (setting [2]), the activity at 100 µM worked out at 27%.

Consider `C=CCn1c(SCCOC)nc2c(c1=O)C1(CCN(C(=O)OC(C)(C)C)C1)Cc1ccccc1-2` (centres unmarked) [CCG-208860, tert-butyl 3-allyl-2-((2-methoxyethyl)thio)-4-oxo-4,6-dihydro-3H-spiro[benzo[h]quinazoline-5,3′-pyrrolidine]-1′-carboxylate], for which the figures for the activity at 5 µM in the test on S. epidermis biofilm and with S. aureus biofilm (setting [3]) were 85% and 70.4%, respectively. Also, the activity at 50 µM stood at 79.8% in the test with S. epidermis biofilm and 46.4% with S. aureus biofilm (setting [4]).
